{
  "source": "patent US20210156844A1",
  "about": "“TMEM16A Modulation for Diagnostic or Therapeutic Use in Pulmonary Hypertension (PH)” (Bayer Aktiengesellschaft, priority 2017, published 2021)",
  "key": {"hypoxia-exposed mice": {"tested_on": "hypoxia-exposed mice", "assay": "Acute hemodynamic effects of benzbromarone in hypoxia-exposed mice", "type": "in vivo, mouse", "settings": "single i.v. bolus of 300 μM", "excerpt": "The experimental protocol is depicted in FIG. 12A. Male C57BL/6J mice (Charles River) at the age of 10 weeks were either placed into a hypoxic chamber (FiO2=0.1, n=16) for 4 weeks, or kept at normoxic conditions (control group, FiO2=0.21, n=8). According to the reports of Fagan et al. (Fagan, K A, et al. Am. J. Physiol. Lung Cell. Mol. Physiol. (2004) 287, L656-664) and Tuscherer et al. (Tuchscherer, H A, et al., J. Biomech. (2007) 40, 993-1001), a significant increase in the right ventricular systolic pressure (RVSP) and PA muscularization can be observed already after 14 days of hypoxia exposure. Therefore, mice subjected to hypoxia were randomized into two groups at the end of the second week. […]\nIn mice, in vivo hemodynamics was performed under constant inhalation of 2% isoflurane/oxygen, using the closed chest technique through a small incision on the submandibular area. Body temperature was monitored and maintained at 37±1° C. A limb-lead ECG was recorded and the heart rate was kept constant to avoid changes in the sympathetic tone during the experiment. The right ventricle (RV) was catheterized via the right jugular vein using a 1.4 F Millar catheter (SPR-671, Millar, Houston Tex., USA) and right ventricular systolic pressure (RVSP) was measured continuously. […]"}, "[1]": {"assay": "Solubility (comparative remark)", "type": "physicochemical"}, "[2]": {"tested_on": "patients with severe IPAH", "assay": "Hemodynamic effect of a single oral dose of benzbromarone in IPAH patients", "type": "in vivo, human", "settings": "200 mg orally", "protocol": "All patients provided a written informed consent to participate in the study. Examinations were performed by the same experienced team. For the right heart catheterizations, a 7F quadriple-lumen, balloon-tipped, flow-directed Swan-Ganz catheter (Baxter, Deerfield, Ill.) was introduced using the transjugular approach. Hemodynamic measurements included systolic, diastolic and mean pulmonary arterial pressure, pulmonary arterial wedge pressure, right atrial pressure, and cardiac output measured by the thermodilution technique and calculated using an analog computer system. Pulmonary vascular resistance was derived from the difference of mean pulmonary arterial pressure and pulmonary arterial wedge pressure divided by cardiac output. Cardiac index was determined as the ratio of cardiac output to body surface area. All measurements were performed in the supine position, pressure values were continuously recorded and averaged over several respiratory cycles during spontaneous breathing. […] Partial pressure of oxygen and oxygen saturation of arterialized ear lobe capillary blood and pulmonary arterial blood were determined with an ABL 800 Flex (Radiometer; Copenhagen, Denmark) blood gas analyzer. Systemic blood pressure was measured by a sphygmomanometer."}, "[3]": {"settings": "after 120 min, 10 patients, no placebo group"}},
  "data": [
    {"smiles": "CCc1oc2ccccc2c1C(=O)c1cc(Br)c(O)c(Br)c1", "note": "[benzbromarone, (2-Ethyl-3-benzofuranyl)-(3,5-dibrom-4-hydroxyphenyl)ketone]", "values": [
      {"measurement": "RVSP", "setting": "hypoxia-exposed mice; mice exposed to 4 weeks of hypoxia", "result": "significant decrease"},
      {"measurement": "RVSP in the control animals", "setting": "hypoxia-exposed mice; normoxia control mice", "result": "without affecting"},
      {"measurement": "solubility compared with T16Ainh-A01", "setting": "[1]", "result": "better soluble"},
      {"measurement": "further changes in the pulmonary or systemic hemodynamics", "setting": "[2]", "result": "no further changes"},
      {"measurement": "PVR", "setting": "[2]; [3]", "result": "slight increase"},
      {"measurement": "mPAP", "setting": "[2]; [3]", "result": "slight increase"},
      {"measurement": "clinical adverse effects", "setting": "[2]; throughout the study", "result": "No clinical adverse effects"}
    ]}
  ]
}
